We go through two compounds from ChEMBL document CHEMBL5653615 (J Biol Chem, 2013).

In assay [1] the target is SRSF protein kinase 3 (Homo sapiens) (UniProt Q9UPE1). The assay can be described thus: Inhibition of human STK23 at 500 nM by HotSpot assay relative to control.
The target in assay [2] is Serine/threonine-protein kinase B-raf (Homo sapiens) (UniProt P15056). The assay can be described thus: Inhibition of human BRAF at 500 nM by HotSpot assay relative to control.
For assay [3], the target named is T1, Testis-specific serine/threonine-protein kinase 1 (Homo sapiens) (UniProt Q9BXA7).
T1 sequence (whole entry): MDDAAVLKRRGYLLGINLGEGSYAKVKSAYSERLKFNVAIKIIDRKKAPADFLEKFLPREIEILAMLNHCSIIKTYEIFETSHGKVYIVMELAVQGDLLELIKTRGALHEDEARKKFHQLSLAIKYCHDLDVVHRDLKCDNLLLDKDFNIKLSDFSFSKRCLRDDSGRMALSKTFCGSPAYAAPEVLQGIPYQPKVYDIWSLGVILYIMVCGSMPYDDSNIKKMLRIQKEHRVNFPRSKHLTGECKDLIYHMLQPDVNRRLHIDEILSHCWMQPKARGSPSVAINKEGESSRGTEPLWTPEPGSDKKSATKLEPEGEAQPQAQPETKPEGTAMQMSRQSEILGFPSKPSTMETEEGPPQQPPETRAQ
The assay can be described thus: Inhibition of human TSSK1 at 500 nM by HotSpot assay relative to control.

For assay [4], the target named is Proto-oncogene tyrosine-protein kinase receptor Ret (Homo sapiens) (UniProt P07949). The assay can be described thus: Inhibition of human RET at 500 nM by HotSpot assay relative to control.
Sequence of Proto-oncogene tyrosine-protein kinase receptor Ret (Homo sapiens) (P07949 whole entry): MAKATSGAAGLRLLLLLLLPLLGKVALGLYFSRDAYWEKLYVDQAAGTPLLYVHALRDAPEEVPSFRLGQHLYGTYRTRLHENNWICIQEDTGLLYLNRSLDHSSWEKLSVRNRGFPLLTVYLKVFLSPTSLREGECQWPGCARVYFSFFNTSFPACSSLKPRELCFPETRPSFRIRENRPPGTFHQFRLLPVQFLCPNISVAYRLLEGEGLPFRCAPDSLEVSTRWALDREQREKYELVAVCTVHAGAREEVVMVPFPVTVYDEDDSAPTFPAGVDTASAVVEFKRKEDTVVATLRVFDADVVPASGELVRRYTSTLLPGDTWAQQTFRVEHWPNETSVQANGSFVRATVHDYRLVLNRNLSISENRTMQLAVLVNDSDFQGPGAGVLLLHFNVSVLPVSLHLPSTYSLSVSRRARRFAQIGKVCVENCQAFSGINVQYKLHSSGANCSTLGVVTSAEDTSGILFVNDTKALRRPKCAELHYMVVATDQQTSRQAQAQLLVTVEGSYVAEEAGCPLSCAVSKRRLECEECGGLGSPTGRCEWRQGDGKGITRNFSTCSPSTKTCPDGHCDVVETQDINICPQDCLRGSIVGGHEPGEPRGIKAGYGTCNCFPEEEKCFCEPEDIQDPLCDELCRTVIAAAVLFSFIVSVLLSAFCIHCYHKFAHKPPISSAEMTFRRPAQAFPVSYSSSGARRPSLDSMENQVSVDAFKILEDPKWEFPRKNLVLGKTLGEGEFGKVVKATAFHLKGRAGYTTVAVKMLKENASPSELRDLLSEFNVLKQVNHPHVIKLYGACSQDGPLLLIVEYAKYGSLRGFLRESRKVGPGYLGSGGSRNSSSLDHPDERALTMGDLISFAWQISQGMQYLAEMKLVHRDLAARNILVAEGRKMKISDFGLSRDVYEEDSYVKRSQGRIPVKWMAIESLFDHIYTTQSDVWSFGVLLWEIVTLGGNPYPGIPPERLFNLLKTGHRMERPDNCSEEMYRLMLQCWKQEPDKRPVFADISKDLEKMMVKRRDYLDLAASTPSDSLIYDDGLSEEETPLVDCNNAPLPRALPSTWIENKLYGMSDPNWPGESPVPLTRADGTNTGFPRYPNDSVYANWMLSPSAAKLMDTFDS
The target of assay [5] is Myosin light chain kinase, smooth muscle (Homo sapiens) (UniProt Q15746). The assay can be described thus: Inhibition of human MYLK at 500 nM by HotSpot assay relative to control.
Assay [6] deals with CDK6/cyclin D3 (Homo sapiens) (UniProt P30281+Q00534). The assay can be described thus: Inhibition of human CDK6/cyclin D3 at 500 nM by HotSpot assay relative to control. Format: protein-complex assay.
Assay [7] has as its target T2, Tyrosine-protein kinase Mer (Homo sapiens) (UniProt Q12866).
T2 sequence (whole entry): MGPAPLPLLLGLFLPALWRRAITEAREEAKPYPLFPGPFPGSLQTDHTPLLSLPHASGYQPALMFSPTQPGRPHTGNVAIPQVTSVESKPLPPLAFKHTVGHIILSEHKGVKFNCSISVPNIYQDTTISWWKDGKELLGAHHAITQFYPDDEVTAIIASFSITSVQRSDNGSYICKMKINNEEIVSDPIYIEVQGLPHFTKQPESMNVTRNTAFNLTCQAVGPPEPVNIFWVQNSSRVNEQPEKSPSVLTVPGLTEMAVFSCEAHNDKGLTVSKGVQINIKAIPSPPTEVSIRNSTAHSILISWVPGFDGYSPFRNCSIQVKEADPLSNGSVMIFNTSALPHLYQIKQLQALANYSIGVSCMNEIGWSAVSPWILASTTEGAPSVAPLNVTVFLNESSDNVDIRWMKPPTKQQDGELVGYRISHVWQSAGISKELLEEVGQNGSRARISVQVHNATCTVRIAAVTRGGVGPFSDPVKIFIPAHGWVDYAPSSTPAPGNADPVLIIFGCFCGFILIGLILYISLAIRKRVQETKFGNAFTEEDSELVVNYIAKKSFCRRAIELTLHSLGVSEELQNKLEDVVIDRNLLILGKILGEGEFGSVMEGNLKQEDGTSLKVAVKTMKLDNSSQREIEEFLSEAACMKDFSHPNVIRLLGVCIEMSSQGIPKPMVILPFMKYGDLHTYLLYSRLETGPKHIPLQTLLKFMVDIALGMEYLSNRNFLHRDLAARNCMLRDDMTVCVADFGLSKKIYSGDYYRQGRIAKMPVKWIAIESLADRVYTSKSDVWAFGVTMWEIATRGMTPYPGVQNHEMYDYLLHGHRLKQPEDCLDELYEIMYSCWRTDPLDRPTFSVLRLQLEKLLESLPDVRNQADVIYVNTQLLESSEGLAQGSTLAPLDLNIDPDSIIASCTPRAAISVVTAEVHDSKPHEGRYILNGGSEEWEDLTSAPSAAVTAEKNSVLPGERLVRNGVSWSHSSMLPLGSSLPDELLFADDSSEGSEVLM
The assay can be described thus: Inhibition of human c-MER at 500 nM by HotSpot assay relative to control.

Assay [8] has as its target RAC-alpha serine/threonine-protein kinase (Homo sapiens) (UniProt P31749). The assay can be described thus: Inhibition of human AKT1 at 500 nM by HotSpot assay relative to control.
The target of assay [9] is Tyrosine-protein kinase Fyn (Homo sapiens) (UniProt P06241). The assay can be described thus: Inhibition of human FYN at 500 nM by HotSpot assay relative to control.
Sequence of Tyrosine-protein kinase Fyn (Homo sapiens) (P06241 2-537 limits assumed): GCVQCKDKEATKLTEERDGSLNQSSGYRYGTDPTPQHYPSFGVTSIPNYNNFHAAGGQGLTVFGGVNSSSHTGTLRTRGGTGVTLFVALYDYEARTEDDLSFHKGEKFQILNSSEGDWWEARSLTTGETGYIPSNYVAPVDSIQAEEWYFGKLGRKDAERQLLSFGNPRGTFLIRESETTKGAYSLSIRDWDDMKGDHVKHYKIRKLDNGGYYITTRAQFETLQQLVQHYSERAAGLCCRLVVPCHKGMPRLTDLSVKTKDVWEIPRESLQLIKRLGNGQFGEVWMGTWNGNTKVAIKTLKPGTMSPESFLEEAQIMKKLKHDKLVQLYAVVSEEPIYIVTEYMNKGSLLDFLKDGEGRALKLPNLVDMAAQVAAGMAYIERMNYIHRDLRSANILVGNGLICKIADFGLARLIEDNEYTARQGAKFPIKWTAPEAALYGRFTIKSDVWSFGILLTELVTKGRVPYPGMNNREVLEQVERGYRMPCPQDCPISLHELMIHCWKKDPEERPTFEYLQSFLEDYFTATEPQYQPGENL
Assay [10] deals with Calcium/calmodulin-dependent protein kinase type II subunit beta (Homo sapiens) (UniProt Q13554). The assay can be described thus: Inhibition of human CAMK2b at 500 nM by HotSpot assay relative to control.
Sequence of Calcium/calmodulin-dependent protein kinase type II subunit beta (Homo sapiens) (Q13554 whole entry): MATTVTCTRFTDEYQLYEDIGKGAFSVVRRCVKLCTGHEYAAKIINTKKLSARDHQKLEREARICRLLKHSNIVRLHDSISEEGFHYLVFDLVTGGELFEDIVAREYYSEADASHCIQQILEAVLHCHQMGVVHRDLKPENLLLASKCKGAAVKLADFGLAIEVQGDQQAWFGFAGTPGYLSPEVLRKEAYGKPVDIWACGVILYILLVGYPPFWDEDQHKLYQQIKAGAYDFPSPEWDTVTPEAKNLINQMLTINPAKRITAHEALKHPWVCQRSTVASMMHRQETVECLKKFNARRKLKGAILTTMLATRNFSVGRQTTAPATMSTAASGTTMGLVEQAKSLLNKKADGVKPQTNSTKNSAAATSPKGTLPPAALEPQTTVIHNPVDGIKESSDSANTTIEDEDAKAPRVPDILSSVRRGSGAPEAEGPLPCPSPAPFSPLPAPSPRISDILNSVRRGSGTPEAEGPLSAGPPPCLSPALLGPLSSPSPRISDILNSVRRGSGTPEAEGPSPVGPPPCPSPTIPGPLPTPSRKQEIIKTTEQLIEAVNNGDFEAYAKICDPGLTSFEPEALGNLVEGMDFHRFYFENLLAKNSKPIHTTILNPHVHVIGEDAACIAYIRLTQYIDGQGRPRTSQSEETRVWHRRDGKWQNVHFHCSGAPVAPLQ
The target of assay [11] is T3, Rhodopsin kinase GRK7 (Homo sapiens) (UniProt Q8WTQ7).
T3 sequence (whole entry): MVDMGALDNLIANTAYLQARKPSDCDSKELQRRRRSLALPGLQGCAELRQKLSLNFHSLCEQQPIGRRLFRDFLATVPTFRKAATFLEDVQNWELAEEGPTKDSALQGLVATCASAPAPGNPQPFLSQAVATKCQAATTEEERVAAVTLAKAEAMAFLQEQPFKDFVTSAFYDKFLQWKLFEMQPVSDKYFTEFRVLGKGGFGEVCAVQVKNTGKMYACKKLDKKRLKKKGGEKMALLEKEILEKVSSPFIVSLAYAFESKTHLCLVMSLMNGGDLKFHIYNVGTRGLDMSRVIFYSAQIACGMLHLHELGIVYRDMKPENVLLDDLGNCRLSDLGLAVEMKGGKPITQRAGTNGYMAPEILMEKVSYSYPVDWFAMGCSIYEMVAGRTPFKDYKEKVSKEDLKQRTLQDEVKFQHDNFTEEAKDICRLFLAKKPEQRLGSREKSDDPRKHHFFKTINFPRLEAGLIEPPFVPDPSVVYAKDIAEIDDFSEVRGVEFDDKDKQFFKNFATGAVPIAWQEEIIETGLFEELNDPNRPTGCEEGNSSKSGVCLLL
The assay can be described thus: Inhibition of human GRK7 at 500 nM by HotSpot assay relative to control.

For assay [12], the target named is CDK4/Cyclin D3 (Homo sapiens) (UniProt P11802+P30281). The assay can be described thus: Inhibition of human CDK4/cyclin D3 at 500 nM by HotSpot assay relative to control. Format: protein-complex assay.

Sequence of SRSF protein kinase 3 (Homo sapiens) (Q9UPE1 whole entry): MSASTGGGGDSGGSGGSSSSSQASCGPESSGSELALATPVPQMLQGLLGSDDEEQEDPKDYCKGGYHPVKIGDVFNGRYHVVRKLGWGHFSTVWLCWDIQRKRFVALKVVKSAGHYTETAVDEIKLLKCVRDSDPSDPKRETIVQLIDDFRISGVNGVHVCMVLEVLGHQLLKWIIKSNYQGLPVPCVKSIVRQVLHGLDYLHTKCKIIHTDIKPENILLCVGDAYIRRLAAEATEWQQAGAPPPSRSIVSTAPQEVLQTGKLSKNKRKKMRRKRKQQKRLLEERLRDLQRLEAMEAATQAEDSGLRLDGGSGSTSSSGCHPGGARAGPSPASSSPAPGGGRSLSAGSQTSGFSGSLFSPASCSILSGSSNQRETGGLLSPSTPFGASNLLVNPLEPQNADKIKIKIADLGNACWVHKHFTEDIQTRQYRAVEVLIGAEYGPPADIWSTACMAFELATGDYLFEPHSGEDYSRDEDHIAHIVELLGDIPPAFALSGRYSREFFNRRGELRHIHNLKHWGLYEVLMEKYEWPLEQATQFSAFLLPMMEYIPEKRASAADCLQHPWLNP
Sequence of RAC-alpha serine/threonine-protein kinase (Homo sapiens) (P31749 whole entry): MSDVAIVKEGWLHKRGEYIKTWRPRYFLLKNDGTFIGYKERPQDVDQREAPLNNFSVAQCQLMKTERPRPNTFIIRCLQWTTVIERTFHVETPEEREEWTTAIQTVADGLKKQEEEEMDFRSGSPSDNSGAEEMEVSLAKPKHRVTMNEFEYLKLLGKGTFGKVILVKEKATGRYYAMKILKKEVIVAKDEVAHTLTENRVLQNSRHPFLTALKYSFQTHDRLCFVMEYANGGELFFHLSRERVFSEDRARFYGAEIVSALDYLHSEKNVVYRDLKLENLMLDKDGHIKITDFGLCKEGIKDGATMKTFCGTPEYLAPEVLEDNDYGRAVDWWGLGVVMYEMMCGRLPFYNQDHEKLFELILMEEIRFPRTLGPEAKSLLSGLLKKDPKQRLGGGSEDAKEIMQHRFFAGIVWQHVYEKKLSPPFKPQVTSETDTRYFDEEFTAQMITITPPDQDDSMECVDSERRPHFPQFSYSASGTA
Sequence of Serine/threonine-protein kinase B-raf (Homo sapiens) (P15056 whole entry): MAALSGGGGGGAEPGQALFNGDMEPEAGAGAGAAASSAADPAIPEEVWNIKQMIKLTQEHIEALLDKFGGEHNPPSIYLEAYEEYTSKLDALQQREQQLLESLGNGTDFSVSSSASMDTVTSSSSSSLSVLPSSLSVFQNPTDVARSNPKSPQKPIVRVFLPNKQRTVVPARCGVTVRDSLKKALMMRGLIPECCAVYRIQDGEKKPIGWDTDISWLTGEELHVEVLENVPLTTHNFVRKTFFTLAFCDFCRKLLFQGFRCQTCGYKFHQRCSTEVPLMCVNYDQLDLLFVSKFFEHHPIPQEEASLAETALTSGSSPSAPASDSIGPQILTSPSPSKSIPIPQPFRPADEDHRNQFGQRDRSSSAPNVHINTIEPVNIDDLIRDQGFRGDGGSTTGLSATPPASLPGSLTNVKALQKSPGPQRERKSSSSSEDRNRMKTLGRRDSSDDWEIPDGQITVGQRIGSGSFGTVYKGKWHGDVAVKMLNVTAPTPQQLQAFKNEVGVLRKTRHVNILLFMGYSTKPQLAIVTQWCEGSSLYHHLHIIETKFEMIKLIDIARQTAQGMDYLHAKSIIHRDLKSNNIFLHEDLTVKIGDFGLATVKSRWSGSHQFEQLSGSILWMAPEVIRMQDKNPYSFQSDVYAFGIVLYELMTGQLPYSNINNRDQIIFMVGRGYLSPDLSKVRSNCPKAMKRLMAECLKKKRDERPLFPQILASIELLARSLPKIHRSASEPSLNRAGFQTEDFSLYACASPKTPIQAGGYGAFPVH

For orientation: inhibition means the relative decrease from the control value, in per cent. For the compound `Oc1n[nH]c2nnc(-c3c(-c4ccccc4)nn4ccccc34)cc12`, the inhibition in assay [1] was 0.76%; in assay [2], 3.81%; in [3], -0.04%; in assay [4] it was -3.97%; in assay [5], 1.22%; in assay [6] it was 1.59%. Also, the inhibition was 2% in [7]; 2.37% in assay [8]; -0.67% in assay [9]; -1.77% in assay [10]; 6.89% in assay [11]; -0.94% in [12].

As for `Nc1n[nH]c2nnc(-c3c(-c4ccccc4)nn4ccccc34)cc12`, the inhibition is 11.2% in [1]; 4.35% in [2]; -1.56% in assay [3]; 6.33% in [4]; 1.66% in assay [5]; 9.56% in [6]. In addition, the inhibition is 23.6% in [7]; 1.98% in [8]; 4.98% in assay [9]; -2.4% in [10]; 3.29% in assay [11]; -0.36% in assay [12].
